Reference: paper PMC12090182, “Repurposing of the RIPK1-Selective Benzo[1,4]oxazepin-4-one Scaffold for the Development of a Type III LIMK1/2 Inhibitor” (ACS Chemical Biology, 2025)

What was measured:
[1] = biological target: EGFR(G719C) (Homo sapiens, UniProt P00533, G719C); experiment: biochemical; format: binding; details: 1000 nM, read-out: Percent Control
[2] = tested on: FLT3(ITD,F691L); format: binding; details: 1000 nM
[3] = biological target: T1, BTK (Homo sapiens, UniProt Q06187); experiment: NanoBRET cellular target engagement; format: cell-based; details: HEK293T cells, read-out: EC50 (NanoBRET), Figure 4C
T1 construct: full-length LIMK1/2, RIPK1, BTK, and LRRK2 cloned in a frame in a NanoLuc-vector (Promega); host or cells: HEK293T
T1 sequence (Q06187 whole entry): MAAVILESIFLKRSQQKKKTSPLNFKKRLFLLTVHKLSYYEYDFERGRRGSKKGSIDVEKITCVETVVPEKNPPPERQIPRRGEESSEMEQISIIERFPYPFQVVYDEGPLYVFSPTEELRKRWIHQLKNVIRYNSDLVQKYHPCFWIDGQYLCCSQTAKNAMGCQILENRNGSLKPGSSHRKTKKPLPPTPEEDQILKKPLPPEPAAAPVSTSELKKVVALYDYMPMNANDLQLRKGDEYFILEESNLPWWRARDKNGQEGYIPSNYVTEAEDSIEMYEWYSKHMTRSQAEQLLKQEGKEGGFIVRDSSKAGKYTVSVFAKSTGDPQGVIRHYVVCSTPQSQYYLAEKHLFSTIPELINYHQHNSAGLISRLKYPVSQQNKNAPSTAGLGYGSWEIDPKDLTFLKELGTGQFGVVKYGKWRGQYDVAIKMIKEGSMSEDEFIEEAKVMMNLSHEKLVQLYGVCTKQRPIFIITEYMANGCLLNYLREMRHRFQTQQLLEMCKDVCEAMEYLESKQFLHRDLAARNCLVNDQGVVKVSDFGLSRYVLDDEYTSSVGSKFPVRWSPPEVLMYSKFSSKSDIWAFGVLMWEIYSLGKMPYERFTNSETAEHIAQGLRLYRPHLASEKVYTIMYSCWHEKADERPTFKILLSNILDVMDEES
Method: (§1) The assay was performed as described previously.[31],[32] In brief, full-length LIMK1/2, RIPK1, BTK, and LRRK2 cloned in a frame in a NanoLuc-vector (Promega) were transfected into HEK293T cells (ATCC CRL-1573) using FuGENE HD (Promega, E2312), and proteins were allowed to express for 20 h. The serially diluted inhibitor and NanoBRET Kinase Tracer (Promega) used at the previously determined Tracer KD,app (Table S1) were pipetted into white 384-well plates (Greiner 781 207) using an ECHO 550 acoustic dispenser (Labcyte). The corresponding transfected cells were added and reseeded at a density of 2 × 10^5 cells/mL after trypsinization and resuspension in Opti-MEM without phenol red (Life Technologies). The system was allowed to equilibrate for 2 h at 37 °C and 5% CO2 prior to BRET measurements. To measure BRET, a NanoBRET Nano-Glo substrate and an extracellular NanoLuc inhibitor (Promega, N2160) were added as per the manufacturer's protocol, and filtered luminescence was measured on a PHERAstar plate reader (BMG Labtech) equipped with a luminescence filter pair (a 450 nm BP filter (donor) and a 610 nm LP filter (acceptor)). Competitive displacement data were then plotted using GraphPad Prism 10 software using a normalized three-parameter curve fit with the following equation: Y = 100/( [drawing 1] ).

[4] = biological target: LRRK2 (Homo sapiens, UniProt Q5S007); experiment: NanoBRET cellular target engagement; format: cell-based; details: LRRK2, HEK293T cells; read-out: EC50 (NanoBRET), Figure 4C
Method: as §1

[5] = biological target: LRRK2(G2019S) (Homo sapiens, UniProt Q5S007, G2019S); experiment: biochemical; format: binding; details: read-out: Percent Control
[6] = biological target: EGFR(T790M) (Homo sapiens, UniProt P00533, T790M); experiment: biochemical; format: binding; details: compound concentration 100 nM; Entrez EGFR; read-out: Percent Control
Sequence of EGFR(T790M) (P00533 25-1210 T790M): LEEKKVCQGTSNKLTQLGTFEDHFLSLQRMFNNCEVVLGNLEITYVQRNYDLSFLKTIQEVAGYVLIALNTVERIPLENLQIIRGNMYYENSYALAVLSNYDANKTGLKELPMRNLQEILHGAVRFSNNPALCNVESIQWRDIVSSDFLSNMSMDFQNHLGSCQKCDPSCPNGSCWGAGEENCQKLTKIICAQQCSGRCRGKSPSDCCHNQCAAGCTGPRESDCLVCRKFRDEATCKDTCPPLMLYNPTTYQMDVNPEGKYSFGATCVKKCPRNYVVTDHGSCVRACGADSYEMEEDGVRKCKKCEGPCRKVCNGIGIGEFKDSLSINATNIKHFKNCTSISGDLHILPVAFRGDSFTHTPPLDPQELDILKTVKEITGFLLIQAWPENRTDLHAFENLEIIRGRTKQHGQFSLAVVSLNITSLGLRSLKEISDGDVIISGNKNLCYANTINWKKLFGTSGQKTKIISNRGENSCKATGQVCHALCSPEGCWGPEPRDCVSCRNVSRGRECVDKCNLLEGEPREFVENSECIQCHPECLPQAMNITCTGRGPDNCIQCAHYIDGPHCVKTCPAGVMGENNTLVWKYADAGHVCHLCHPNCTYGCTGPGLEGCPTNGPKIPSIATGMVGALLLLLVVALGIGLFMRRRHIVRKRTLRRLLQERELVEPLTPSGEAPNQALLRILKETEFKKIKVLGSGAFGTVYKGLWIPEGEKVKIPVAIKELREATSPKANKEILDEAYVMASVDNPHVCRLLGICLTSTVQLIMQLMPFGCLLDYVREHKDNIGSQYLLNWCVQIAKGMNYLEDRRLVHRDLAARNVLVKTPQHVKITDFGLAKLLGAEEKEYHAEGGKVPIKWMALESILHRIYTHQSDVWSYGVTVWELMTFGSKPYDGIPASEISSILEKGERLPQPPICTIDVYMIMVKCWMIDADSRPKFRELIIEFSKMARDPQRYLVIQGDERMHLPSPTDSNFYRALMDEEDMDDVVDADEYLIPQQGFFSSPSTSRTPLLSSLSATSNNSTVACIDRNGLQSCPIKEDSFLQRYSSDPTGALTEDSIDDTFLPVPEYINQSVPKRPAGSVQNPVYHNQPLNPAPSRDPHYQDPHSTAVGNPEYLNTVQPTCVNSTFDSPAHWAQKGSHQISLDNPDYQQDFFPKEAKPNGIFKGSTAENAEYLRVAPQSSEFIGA

[7] = biological target: ABL1(M351T)-phosphorylated (Homo sapiens, UniProt P00519, M351T); experiment: biochemical; format: binding; details: read-out: Percent Control
[8] = biological target: ABL1(F317L)-phosphorylated (Homo sapiens, UniProt P00519, F317L); experiment: biochemical; format: binding; details: read-out: Percent Control

Sequence of EGFR(G719C) (P00533 25-1210 G719C): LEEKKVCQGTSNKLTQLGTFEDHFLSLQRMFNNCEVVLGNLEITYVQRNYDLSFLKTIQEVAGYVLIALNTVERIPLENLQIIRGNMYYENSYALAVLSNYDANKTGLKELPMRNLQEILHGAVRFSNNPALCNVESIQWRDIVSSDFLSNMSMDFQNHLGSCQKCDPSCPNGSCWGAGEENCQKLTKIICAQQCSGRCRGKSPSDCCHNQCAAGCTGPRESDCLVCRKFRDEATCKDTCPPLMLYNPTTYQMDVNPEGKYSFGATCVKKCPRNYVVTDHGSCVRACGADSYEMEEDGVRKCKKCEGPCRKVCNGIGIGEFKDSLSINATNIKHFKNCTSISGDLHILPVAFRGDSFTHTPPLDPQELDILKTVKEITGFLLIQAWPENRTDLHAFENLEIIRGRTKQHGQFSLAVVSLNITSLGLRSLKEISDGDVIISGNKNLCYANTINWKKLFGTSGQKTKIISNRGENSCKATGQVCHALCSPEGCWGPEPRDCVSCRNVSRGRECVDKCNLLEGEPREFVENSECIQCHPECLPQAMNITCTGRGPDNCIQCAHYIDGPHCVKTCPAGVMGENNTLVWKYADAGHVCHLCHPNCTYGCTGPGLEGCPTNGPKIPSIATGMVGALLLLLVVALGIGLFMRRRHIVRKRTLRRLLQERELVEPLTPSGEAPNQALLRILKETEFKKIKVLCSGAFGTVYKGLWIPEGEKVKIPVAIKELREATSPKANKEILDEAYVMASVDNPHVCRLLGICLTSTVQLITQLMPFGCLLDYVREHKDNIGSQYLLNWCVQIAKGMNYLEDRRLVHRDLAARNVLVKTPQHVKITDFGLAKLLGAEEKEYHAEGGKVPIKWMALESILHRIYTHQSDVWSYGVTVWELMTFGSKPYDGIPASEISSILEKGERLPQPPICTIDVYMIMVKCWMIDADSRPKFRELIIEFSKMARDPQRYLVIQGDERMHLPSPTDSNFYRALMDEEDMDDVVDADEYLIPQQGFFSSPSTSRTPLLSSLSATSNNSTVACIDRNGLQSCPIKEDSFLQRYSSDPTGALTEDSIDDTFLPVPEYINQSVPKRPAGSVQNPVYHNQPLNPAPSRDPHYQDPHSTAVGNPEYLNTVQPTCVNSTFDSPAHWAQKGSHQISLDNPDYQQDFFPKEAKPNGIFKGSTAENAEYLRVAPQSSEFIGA

In the case of `CN1C(=O)[C@@H](N2CCc3c(nn(Cc4ccccc4)c3C(N)=O)C2=O)COc2cc(Cl)ccc21` [Compound 10, (S)-2-benzyl-6-(8-chloro-5-methyl-4-oxo-2,3,4,5-tetrahydrobenzo[b][1,4]oxazepin-3-yl)-7-oxo-4,5,6,7-tetrahydro-2H-pyrazolo[3,4-c]pyridine-3-carboxamide], the remaining activity at 1 µM [1] is reported as 86%, the “Percent Control” value [2] is reported as 100% and the EC50 [3] is reported as > 50 µM. The EC50 [4] was > 50 µM, the remaining activity at 1 µM [5] was 86% and the remaining activity at 0.1 µM [6] was 100%. The remaining activity at 1 µM [7] was 100% and the remaining activity at 1 µM [8] was 100%.
